What was measured:
mice fed with HFD = experiment: HFD-fed mice, 8 weeks, gavage: serum/liver lipids, body weight, food intake; type: in vivo; details: for HDL chol. / LDL chol. / TG / Tot. chol.: Table 2, mice
Protocol: In the 8 week experiment, C57BL/6J male mice (21-22 g), after fasting, were fed a HFD as a model of hyperlipidemia for 8 weeks. During the 2 month experiments, mice fasted for one night before the experiment was changed from a standard diet (STD) to a HFD and then the mice were randomly divided into 5 groups, including 2 control and 3 treatment groups. Six mice were used in each group. […] Liver from the protection group supplemented with KMUP-1 HCl (1 mg/kg/day) were used to determine the HMG CoA reductase expression.
Within 2 months, the 3 day food intake average for each animal was measured. The weight gain and plasma lipid levels of each group were determined and compared to the non-treatment control group. Mouse blood was collected during the daytime by cardiac puncture followed by centrifugation at 90 g (Benchtop Centrifuge, U.S.A.) to separate the serum, and frozen at −80° C., for biochemical analysis using a Hitachi Clinical Analyzer 7070 (Hitachi High-Technologies Co. Tokyo, Japan). Agents used in the assays were Obtained from Merck & Co. (Kenilworth, N.J., U.S.A.). Triglyceride (TG), total cholesterol, HDL cholesterol and LDL cholesterol in mouse serum were measured by methods used in the clinic. To measure the hepatic TG, isolated liver were cut into small chips.

HMG CoA reductase = HMG CoA reductase expression in liver of HFD mice (8 weeks); type: in vivo; details: KMUP-1 HCl 2.5, 5 mg/kg, simvastatin 5 mg/kg
Protocol: In the 8 week experiment, C57BL/6J male mice (21-22 g), after fasting, were fed a HFD as a model of hyperlipidemia for 8 weeks. During the 2 month experiments, mice fasted for one night before the experiment was changed from a standard diet (STD) to a HFD and then the mice were randomly divided into 5 groups, including 2 control and 3 treatment groups. Six mice were used in each group. […]
The obtained protein extract was boiled to a ratio of 4:1 with a sample buffer (Tris 100 mM, pH 6.8, glycerol 20%, SDS 4% and bromophenol blue 0.2%). Electrophoresis was performed using 10% SDS-polyacrylamide gel (1 hour, 100 V, 40 mA, 20 μg protein per lane).
The blot was then incubated with anti-mouse or anti-goat IgG linked to alkaline phosphatase (1:1000) for 1 hour.

mice fed a HFD = experiment: HFD-fed mice, 14-week experiment: body weight, liver morphology, H&E, oil globulets; type: in vivo
Protocol: In the 14-week experiment, mice were fed a HFD from week 1 to week 14. During the 3 month experiments, KMUP-1 HCl (2.5 mg) was added to 200 ml tap water and) and drink for 14 weeks or for the last 6 weeks on mice or obese mice fed HFD, separately. 5 mice had free access to drinking water from week 1 to week 14 (protective group) or from week 8 to week 14 (treatment group). Tap water was used to normalize mineral nutrition (Scheme A).
The diameter of the white bar in the photograph was standardized at 100 μM for measuring the specific diameter of oil globulets in a whole liver slice, observed by microscope, with the aid of Powerpoint PC computer software (Microsoft®, USA) and printed out by a Hewlett-Packard® printer (USA). An increase in oil globulet diameter and cell number indicated increasing liver steatosis, i.e. steaotohepatitis. In contrast, decrease in diameter and the number of fat cells indicated the inhibition of steaotohepatitis. […] Hematoxylin-eosin (H&E) and […] staining of liver were used to assess oil globulet numbers under a microscope.
Mice liver and epididymal fat pads were cut and soaked in formalin, dehydrated through graded alcohols and embedded in paraffin. Specimens of liver tissues and epididymal fat pads fixed with formalin (4%) were embedded in paraffin for one hour at 4° C., cut into […] sections, and subjected to H&E staining before examination by light microscope. In heart tissues, the 4-μm-thick paraffin sections were cut from paraffin-embedded tissue blocks and de-paraffinized by immersion in xylene and rehydrated. The slices were then dyed with H&E. After gently rinsing with water, each slide was dehydrated through graded alcohols and finally soaked in xylene twice.
Hematoxylin-eosin (H&E) and IHC staining of liver were used to assess oil globulet numbers under a microscope. A 100 μM white bar was used to determine oil globule sizes in the liver. Oil globulets in a cell were counted from larger to smaller until size limitations were reached. Increases of oil globulet diameter and number indicated increasing liver steatosis. In contrast, a decrease in oil globulet diameters and numbers could indicate the inhibition of liver steatosis. Oil globulets were measured using a Nikon Eclipse TE200-S microscope, aided by Powerpoint computer software (Microsoft®) and printed by a HP® printer to measure the diameter and number of oil globulets on paper. Counting: of oil globules was performed from larger to smaller ones until the observation reached its limit.

LDLRs = experiment: IHC staining of LDLRs in liver; type: in vivo, mice; details: drinking KMUP-1 HCl; HFD; protection and treatment groups
Protocol: Liver tissues were fixed in 10% buffered formalin for 24 hours and then embedded in paraffin. The paraffin-embedded liver tissue sections (4 μm thick) were first heat immobilised and deparaffinised using xylene and then rehydrated in a graded series of ethanol, followed by a final wash in distilled water. Finally, tissue sections were stained with PAS and Mayer's hematoxylin solution.
For IHC of hepatic LDLRs in the animals that drink the KMUP-1 HCl (2.5 mg/200 mL for 1-14 weeks or 8-14 weeks), antigen retrieval of de-paraffinated sections was performed in Dako target retrieval solution, pH 9.0, in a vegetable steamer followed by the quenching of endogenous peroxidase activity with 3.0% H2O2 in methanol. Sections were then incubated with specific primary antibodies overnight at 4° C. in a humidified chamber. The sections were then examined using a DAKO REAL EnVision™ Detection System kit (DAKO, Carpinteria, Calif., U.S.A.) and counterstained with hematoxylin. Images were obtained through a Nikon Eclipse TE200-S microscope.

eNOS = experiment: Table 4 eNOS (% of control); type: cell-based; details: control group = 100 (%)
PDE-5A = experiment: Table 4 PDE-5A (% of control); type: cell-based; details: control group = 100 (%)
ROCKII = experiment: Table 4 ROCKII (% of control); type: cell-based; details: control group = 100 (%)

SMILES: Cl.Cn1c(=O)c2c(ncn2CCN2CCN(c3ccccc3Cl)CC2)n(C)c1=O [KMUP-1 HCl, 7-[2-[4-(2-chlorophenyl)piperazinyl]ethyl]-1,3-dimethylxanthine HCl complex]
- body-weight gain (mice fed with HFD; KMUP-1 HCl 2.5, 5 mg/kg p.o., simvastatin 5 mg/kg p.o., compared to control HFD group, p<0.05): reduced
- HDL chol. (mice fed with HFD; dose 2.5 mg/kg): 103.6 ± 4.2 mg/dL
- LDL chol. (mice fed with HFD; dose 2.5 mg/kg): 14.2 ± 1.4 mg/dL
- TG (mice fed with HFD; dose 2.5 mg/kg): 74.5 ± 5.1 mg/dL
- Tot. chol. (mice fed with HFD; dose 2.5 mg/kg): 133 ± 5.1 mg/dL
- HDL chol. (mice fed with HFD; dose 5 mg/kg): 118.3 ± 5.7 mg/dL
- LDL chol. (mice fed with HFD; dose 5 mg/kg): 14.2 ± 2.2 mg/dL
- TG (mice fed with HFD; dose 5 mg/kg): 72.67 ± 4.7 mg/dL
- Tot. chol. (mice fed with HFD; dose 5 mg/kg): 125.5 ± 9.8 mg/dL
- HFD-induced downregulation of HMG-CoA reductase expression in liver (HMG CoA reductase): significantly reversed
- body weight (mice fed a HFD; drinking 2.5 mg/200 ml water, protection and treatment groups): decreased
- fatty liver (gross morphology) (mice fed a HFD; protective group, more prominent than in the treatment group): markedly decreased
- hepatic LDLRs (IHC) (LDLRs): increased
- eNOS (eNOS): 155.16 ± 14.8%
- PDE-5A (PDE-5A): 64.5 ± 4.5%
- ROCKII (ROCKII): 42.5 ± 6.3%

Source: patent publication US20150359798A1, “PIPERAZINYL DERIVATIVE REDUCES HIGH-FAT DIET-INDUCED ACCUMULATION OF FAT IN THE LIVERS, […]” (priority 2011, published 2015)
